≈ marks a conversion by molar mass, not a printed value.
Key:
Type in all cases: cell-based, Pseudomonas aeruginosa
[1] = system: MPAO1-ΔmutL; assay: MIC, microbroth dilution assay; conditions: for MIC: Pseudomonas aeruginosa, read-out: MIC, average of triplicates
Description: (§1) MIC experiments were performed using biological triplicates.

[2] = system: MPAO1-ΔmutS; assay: MIC, microbroth dilution assay; conditions: for MIC: Pseudomonas aeruginosa, read-out: MIC, average of triplicates
Description: as §1

[3] = system: MPAO1-ΔmutL; assay: In vitro adaptive evolution (serial passaging) with MIC determination; conditions: for MIC: Pseudomonas aeruginosa
Description: (§2) MICs were determined via microbroth dilution assay in 96-well culture plates with 2-fold serial dilutions of tested antibiotic in Mueller-Hinton (cation-adjusted) broth, inoculated with 50 μL of 2.75×10^5 CFU/mL of each bacterial strain and incubated at 37° C., 200 rpm for 24 hours. MIC experiments were performed using biological triplicates.
(§3) Serial passaging of bacterial strains was performed in 96-well culture plates with 2-fold serial dilutions of antibiotic in MH broth, inoculated with 50 μL 2.75×10^5 CFU/mL of each strain and incubated at 37° C., 200 rpm for 24 hours. […] The bacteria were then serially passaged in the same antibiotic and MIC determined for all antibiotics (aztreonam, ciprofloxacin, D-CONGA, D-CONGA-Q7, polymyxin B). See Antimicrobial susceptibility testing section. The bacteria were serially passaged a total of 10 times.
(§4) All resistance acquisition data was analyzed in units of fold-change to normalize for differences in starting MIC across strains. Fold-change in MIC data for all strains and treatment groups was natural log-transformed and simple linear regression was performed considering each replicate fold-change value as an individual point. Slope, standard error of slope, and total number of values of each treatment group of interest were analyzed via unpaired t-test (ΔmutS vs WT) or ordinary one-way ANOVA (cross-resistance acquisition of ΔmutS+AB vs −AB vs WT), and α-values were corrected for multiple comparisons using the Bonferroni method. Differences in estimated mutation rate across treatment groups were determined via ordinary one-way ANOVA (Brown-Forsythe test). For all statistical tests, p<0.05 was considered significant. All figures were created and statistical tests were done using GraphPad Prism 9.3.1.

[4] = system: MPAO1; assay: as above; conditions: for MIC: Pseudomonas aeruginosa
Description: as §2, §3, §4

[5] = system: MPAO1-ΔmutS; assay: as above; conditions: for MIC: Pseudomonas aeruginosa
Description: as §2, §3, §4

[6] = system: PAO1; assay: microbe, parasite or virus in culture; conditions: strain PAO1; for MIC: Pseudomonas aeruginosa, read-out: MIC, average of triplicates
Description: as §1

[7] = system: MPAO1; assay: microbe, parasite or virus in culture; conditions: strain MPAO1; for MIC: Pseudomonas aeruginosa, read-out: MIC, average of triplicates
Description: as §1

[8] = read-out: Average MIC at end point, MPAO1 evolved in AZ
[9] = read-out: Average MIC at end point, MPAO1 evolved in AZ + COL
[10] = read-out: Average MIC at end point, MPAO1 evolved in AZ + D-CONGA
[11] = read-out: Average MIC at end point, MPAO1 evolved in AZ + D-CONGA-Q7
[12] = read-out: Average MIC at end point, MPAO1 evolved in Chl + Str
[13] = read-out: Average MIC at end point, MPAO1 evolved in D-CONGA
[14] = read-out: Average MIC at end point, MPAO1 evolved in D-CONGA-Q7
[15] = read-out: Average MIC at end point, MPAO1 passaged with No Antibiotic (Table 4)
[16] = read-out: Average MIC at end point, MPAO1 passaged with No Antibiotic (Table 8)
[17] = read-out: Average MIC at end point, MPAO1-ΔmutS evolved in AZ
[18] = read-out: Average MIC at end point, MPAO1-ΔmutS evolved in AZ + COL
[19] = read-out: Average MIC at end point, MPAO1-ΔmutS evolved in AZ + D-CONGA
[20] = read-out: Average MIC at end point, MPAO1-ΔmutS evolved in AZ + D-CONGA-Q7
[21] = read-out: Average MIC at end point, MPAO1-ΔmutS evolved in Chl
[22] = MPAO1-ΔmutL evolved in Chl + Str
[23] = MPAO1-ΔmutL passaged with No Antibiotic
[24] = MPAO1 evolved in AZ + D-CONGA-Q7
[25] = MPAO1 passaged with No Antibiotic (Table 4)
[26] = MPAO1 passaged with No Antibiotic (Table 8)
[27] = MPAO1-ΔmutS evolved in AZ + COL
[28] = MPAO1-ΔmutS evolved in AZ + D-CONGA
[29] = MPAO1-ΔmutS evolved in AZ + D-CONGA-Q7
[30] = MPAO1-ΔmutS evolved in D-CONGA-Q7
[31] = MPAO1-ΔmutS passaged with No Antibiotic (Table 4)
[32] = MPAO1-ΔmutS passaged with No Antibiotic (Table 8)

C[C@H]1[C@H](NC(=O)/C(=N\OC(C)(C)C(=O)O)c2csc(N)n2)C(=O)N1S(=O)(=O)O [Aztreonam]
MIC [1]: 30 µg/mL (≈ 68.9 µM) | MIC [2]: 13 µg/mL (≈ 29.9 µM) | MIC ([3]; read-out: Average MIC at end point, MPAO1-ΔmutL evolved in Chl + Str): 32 µg/mL | MIC ([3]; read-out: Average MIC at end point, MPAO1-ΔmutL passaged with No Antibiotic): 11 µg/mL (≈ 25.3 µM) | MIC [4, 8]: 8 µg/mL (≈ 18.4 µM) | MIC [4, 9]: 19 µg/mL | MIC [4, 10]: 11 µg/mL | MIC [4, 11]: 4 µg/mL | MIC [4, 12]: 3 µg/mL | MIC [4, 13]: 7 µg/mL (≈ 16.1 µM) | MIC [4, 14]: 7 µg/mL (≈ 16.1 µM) | MIC [4, 15]: 3 µg/mL (≈ 6.89 µM) | MIC [4, 16]: 4 µg/mL (≈ 9.19 µM) | MIC [5, 17]: 107 µg/mL (≈ 246 µM) | MIC [5, 18]: 16 µg/mL | MIC [5, 19]: 18 µg/mL | MIC [5, 20]: 16 µg/mL | MIC [5, 21]: 32 µg/mL (≈ 73.5 µM) | MIC ([5]; read-out: Average MIC at end point, MPAO1-ΔmutS evolved in D-CONGA): 16 µg/mL (≈ 36.7 µM) | MIC ([5]; read-out: Average MIC at end point, MPAO1-ΔmutS evolved in D-CONGA-Q7): 4 µg/mL (≈ 9.19 µM) | MIC ([5]; read-out: Average MIC at end point, MPAO1-ΔmutS passaged with No Antibiotic (Table 4)): 8 µg/mL (≈ 18.4 µM) | MIC ([5]; read-out: Average MIC at end point, MPAO1-ΔmutS passaged with No Antibiotic (Table 8)): 5 µg/mL (≈ 11.5 µM) | MIC [6]: 3 µg/mL (≈ 6.89 µM) | MIC [7]: 2 µg/mL (≈ 4.59 µM)

O=C(N[C@H](CO)[C@H](O)c1ccc([N+](=O)[O-])cc1)C(Cl)Cl [Chloramphenicol]
MIC [1]: 400 µg/mL (≈ 1240 µM) | MIC [2]: ≥ 400 µg/mL | susceptibility of the strains before evolution (summary of Table 3) ([2]; wild type and mutS-deficient MPAO1): anticipated intrinsic resistance | cross-resistance induced by treatment ([4]; antibiotic-treated wild type MPAO1): no cross resistance developed | cross-resistance to antibiotics induced by treatment ([5]; MPAO1-ΔmutS evolved in the named drug): induced cross-resistance to antibiotics in a different class such as ciprofloxacin | MIC [6]: 400 µg/mL (≈ 1240 µM) | MIC [7]: ≥ 400 µg/mL

O=C(O)c1cn(C2CC2)c2cc(N3CCNCC3)c(F)cc2c1=O [Ciprofloxacin]
MIC [1]: 0.3 µg/mL (≈ 0.905 µM) | MIC [2]: 1 µg/mL (≈ 3.02 µM) | MIC [4, 8]: 0.25 µg/mL (≈ 0.754 µM) | MIC [4, 9]: 2 µg/mL | MIC [4, 10]: 0.7 µg/mL | MIC [4, 11]: 0.8 µg/mL | MIC ([4]; read-out: Average MIC at end point, MPAO1 evolved in COL): 2 µg/mL (≈ 6.04 µM) | MIC ([4]; read-out: Average MIC at end point, MPAO1 evolved in Chl): 1 µg/mL (≈ 3.02 µM) | MIC [4, 12]: 2 µg/mL | MIC [4, 13]: 1 µg/mL (≈ 3.02 µM) | MIC [4, 14]: 0.75 µg/mL (≈ 2.26 µM) | MIC [4, 15]: 2 µg/mL (≈ 6.04 µM) | MIC [4, 16]: 0.8 µg/mL (≈ 2.41 µM) | MIC [5, 17]: 4 µg/mL (≈ 12.1 µM) | MIC [5, 18]: 2 µg/mL | MIC [5, 19]: 0.8 µg/mL | MIC [5, 20]: 0.7 µg/mL | MIC [5, 21]: 8 µg/mL (≈ 24.1 µM) | MIC [6]: 0.25 µg/mL (≈ 0.754 µM) | MIC [7]: 0.5 µg/mL (≈ 1.51 µM)

[H]/N=C(/N)N[C@H]1[C@H](O)[C@@H](O)[C@H](O[C@@H]2O[C@@H](C)[C@](O)(C=O)[C@H]2O[C@@H]2O[C@@H](CO)[C@H](O)[C@@H](O)[C@@H]2NC)[C@@H](N/C(N)=N\[H])[C@@H]1O [Streptomycin]
MIC [1]: 43 µg/mL (≈ 73.9 µM) | MIC [2]: 32 µg/mL (≈ 55 µM) | MIC [6]: 21 µg/mL (≈ 36.1 µM) | MIC [7]: 8 µg/mL (≈ 13.8 µM)

Polymyxin B
MIC, average of triplicates ([1]; strain ΔmutL): 3 µg/mL | MIC, average of triplicates ([2]; strain ΔmutS): 2 µg/mL | Average MIC at end point [3, 22]: 0.5 µg/mL | fold-change relative to starting MIC before treatment [3, 22]: 0.25 | Average MIC at end point [3, 23]: 2 µg/mL | fold-change relative to starting MIC before treatment [3, 23]: 0.6 | Average MIC at end point ([4]; MPAO1 evolved in AZ): 3 µg/mL | fold-change relative to starting MIC before treatment ([4]; MPAO1 evolved in AZ): 1.3 | Average MIC at end point ([4]; MPAO1 evolved in AZ + COL): 2 µg/mL | fold-change relative to starting MIC before treatment ([4]; MPAO1 evolved in AZ + COL): 1 | Average MIC at end point ([4]; MPAO1 evolved in AZ + D-CONGA): 2 µg/mL | fold-change relative to starting MIC before treatment ([4]; MPAO1 evolved in AZ + D-CONGA): 1 | Average MIC at end point [4, 24]: 2 µg/mL | fold-change relative to starting MIC before treatment [4, 24]: 1 | Average MIC at end point ([4]; MPAO1 evolved in COL): 2 µg/mL | fold-change relative to starting MIC before treatment ([4]; MPAO1 evolved in COL): 1 | Average MIC at end point ([4]; MPAO1 evolved in Chl): 2 µg/mL | fold-change relative to starting MIC before treatment ([4]; MPAO1 evolved in Chl): 1 | Average MIC at end point ([4]; MPAO1 evolved in D-CONGA): 4 µg/mL | fold-change relative to starting MIC before treatment ([4]; MPAO1 evolved in D-CONGA): 2.4 | Average MIC at end point ([4]; MPAO1 evolved in D-CONGA-Q7): 2 µg/mL | fold-change relative to starting MIC before treatment ([4]; MPAO1 evolved in D-CONGA-Q7): 1 | Average MIC at end point [4, 25]: 1 (1) μg/mL | fold-change relative to starting MIC before treatment [4, 25]: 1 (1) | Average MIC at end point [4, 26]: 2 µg/mL | fold-change relative to starting MIC before treatment [4, 26]: 1 | Average MIC at end point ([5]; MPAO1-ΔmutS evolved in AZ): 2 µg/mL | fold-change relative to starting MIC before treatment ([5]; MPAO1-ΔmutS evolved in AZ): 1 | Average MIC at end point [5, 27]: 2 µg/mL | fold-change relative to starting MIC before treatment [5, 27]: 1 | Average MIC at end point [5, 28]: 2 µg/mL | fold-change relative to starting MIC before treatment [5, 28]: 1 | Average MIC at end point [5, 29]: 2 µg/mL | fold-change relative to starting MIC before treatment [5, 29]: 1 | Average MIC at end point ([5]; MPAO1-ΔmutS evolved in COL): 27 µg/mL | fold-change relative to starting MIC before treatment ([5]; MPAO1-ΔmutS evolved in COL): 8 | Average MIC at end point ([5]; MPAO1-ΔmutS evolved in Chl): 2 µg/mL | fold-change relative to starting MIC before treatment ([5]; MPAO1-ΔmutS evolved in Chl): 1 | Average MIC at end point ([5]; MPAO1-ΔmutS evolved in D-CONGA): 3 µg/mL | fold-change relative to starting MIC before treatment ([5]; MPAO1-ΔmutS evolved in D-CONGA): 1.33 | Average MIC at end point [5, 30]: 4 µg/mL | fold-change relative to starting MIC before treatment [5, 30]: 2 | Average MIC at end point [5, 31]: 2 µg/mL | fold-change relative to starting MIC before treatment [5, 31]: 1 | Average MIC at end point [5, 32]: 2 µg/mL | fold-change relative to starting MIC before treatment [5, 32]: 1 | MIC, average of triplicates [6]: 2 µg/mL | MIC, average of triplicates [7]: 2 µg/mL

Source: patent US20260224658A1, “PRODUCTS AND METHODS FOR THE DIAGNOSIS AND TREATMENT OF P[…]” (priority 2023, published 2026)
